For series [1] the following is noted: swine, SC 6 mg/kg; ref Wyns et al., 2014; cited from earlier work.
For series [2] the following is noted: cattle, SC 6 mg/kg; ref Steeve et al., 2011; cited from earlier work.
In series [3] the test system is P. multocida. On the set-up: method as in Benoit et al., 2011. As to conditions: P. multocida with erm(E); ref Benoit et al., 2011; cited from earlier work. The text has this:
Bovine respiratory disease (BRD) associated with Mannheimia haemolytica, P. multocida, and Histophilus somni is one of the most economically important diseases that occur in feedlots, and the global losses are estimated at over $3 billion per year ([Watts and Sweeney, 2010]).

Series [4] deals with Pasteurella multocida strains. The series can be described thus: MIC by broth microdilution (CLSI). The format is cell-based. As to conditions: drug alone, broth microdilution, Mueller-Hinton broth, triplicate. As for the experimental part:
The susceptibility of the selected P. multocida isolates and the quality control isolate (ATCC 25922) to colistin, gamithromycin, cefquinome, enrofloxacin, tilmicosin, tylosin tartrate, and florfenicol alone was determined using the microdilution method in broth (conducted in triplicate) according to the guiding principles of the CLSI. Based on the action mechanism of each drug, the antimicrobial activity of colistin or cefquinome (drug A) in combination with gamithromycin, enrofloxacin, tilmicosin, tylosin tartrate, or florfenicol (drug B) was determined with the checkerboard method, according to the minimal inhibitory concentration (MIC) of each drug. Briefly, 50 μL of MH II broth was added to each well, and 50 μL of the indicated concentration of colistin or cefquinome was added into the first well of each line. This was followed by multiproportion dilution. Next, 50-μL samples of different concentrations of gamithromycin or the other drugs mentioned above were added to the dilution medium, and a 100 μL inoculum with a cell density of ∼1 × 10^6 colony-forming units (CFU)/mL was added to each well. The plates were then incubated at 37°C for 24 h. According to the EUCAST definitive document E.Def 1.2 ([Mccullough, 2010]), the fractional inhibitory concentration (FIC) index for combined administrations was defined as the sum of the FIC of drug A and the FIC of drug B, where FIC is the MIC of the drug combined with other drugs, divided by the MIC of the drug alone.

Series [5] can be described thus: In vitro plasma protein binding, equilibrium dialysis. The format is in vitro ADME. As to conditions: 72 h at 4°C. The protocol: In vitro plasma protein-binding experiments for gamithromycin were conducted by adopting an equilibrium dialysis method for 72 h at 4°C. The corresponding unbound plasma PK parameters were obtained and used for the integration of PK and PD data.
For orientation: In equilibrium dialysis only unbound substance equilibrates across the membrane.

Series [6] has as its system Pasteurella multocida strains (D18, T5, and WJ11). Nature of the series: PK/PD relationship analysis (inhibitory Emax model, plasma AUC/MIC, target doses). The series is classed as in vivo. As to conditions: gamithromycin monotherapy; for Gamithromycin AUC/MIC required to reach 1-log10 kill / Gamithromycin AUC/MIC required to reach stasis: plasma AUC. The protocol: The relationship between the in vivo antimicrobial activity of gamithromycin alone or in combination with colistin and the ratio of plasma PK parameters to the MIC of gamithromycin was assessed. An inhibitory effect Emax model from the Phoenix WinNonlin identification module was used for analysis based on the equation: E = Emax − (Emax−E0) × Ce/(Ce + EC50), where E is the antimicrobial effect (i.e., the change in bacterial burden in CFU per lung), Emax is the change in log10 CFU/lung for control groups, […], Ce is the PK/PD index under analysis, and EC50 is the Ce value at 50% of E0.
Integration of PK and PD data is important for clinical drug administration ([Toutain et al., 2002]). Herein, PK values in plasma were used to calculate the PK/PD index, which was integrated with changes in bacteria log10 CFU/lung. Antimicrobials that achieve significant PAE values are generally described as concentration-dependent ([Jacobs, 2004]).

Details of series [7]: method as in Soon-Ee et al., 2015. As to conditions: ref Soon-Ee et al., 2015; cited from earlier work.
Series [8] relates to Pasteurella multocida (D18, T5, and WJ11). The series can be described thus: In vitro time-kill assays. As to conditions: colistin alone 0.25-1 mg/L, 24 h, all strains (D18, T5, WJ11), inoculum ~5 × 10^6 CFU/mL. The series is classed as cell-based. As for the experimental part: In vitro time-kill assays were used to evaluate the effects of colistin alone and in combination with gamithromycin over 24 h. Three isolates of P. multocida (D18, T5, and WJ11) were tested. A P. multocida inoculum at ∼5 × 10^6 CFU/mL was treated with colistin alone at 0.25, 0.5, and 1 mg/L; gamithromycin alone at 0.125, 0.25, and 0.5 mg/L; and with colistin in combination with gamithromycin. At 0, 1, 2, 4, 6, 8, 12, and 24 h after incubation, 100-μL samples were taken from each tube for colony counting. A growth control without drug administration was included in all tests.

Where [9] appears, read: strain D18, lungs of mice, n = 4.
[10] abbreviates: strain T5, lungs of mice, n = 4.
The mark [11] stands for this setting: strain WJ11, lungs of mice, n = 4.

Read-outs that look alike come from different tables or passages of the source. Where a SMILES comes first, the peptide text is derived from it. Bridges are numbered along the chain shown (N, C = ends). [ ]: non-standard residue; d: D form. The star is where a group is joined. X1 = CC[C@H](C)CCCCC(=O)*; Dab = NCC[C@H](N)C(=O)O

The values that follow come from paper PMC7536268, “Increased Antimicrobial Activity of Colistin in Combination With Gamithromycin Against Pasteurella multocida in a Neutropenic Murine Lung Infection Model” (Frontiers in Microbiology, 2020).

In the case of `CCCN1C[C@H](C)[C@@H](O)[C@](C)(O)[C@@H](CC)OC(=O)[C@H](C)[C@@H](O[C@H]2C[C@@](C)(OC)[C@@H](O)[C@H](C)O2)[C@H](C)[C@@H](O[C@@H]2O[C@H](C)C[C@H](N(C)C)[C@H]2O)[C@](C)(O)C[C@H]1C` [Gamithromycin], the AUClast in series [1] is 3.48 mg⋅h/L; in series [2] it was 7.82 mg⋅h/L. The MIC (as a rule, the least concentration at which growth counts as inhibited) in series [3] was at least 512 µg/mL; in series [4] (strain CVCC 444) it was 0.5 µg/mL; in series [4] (strain D18), 0.5 µg/mL; in series [4] (strain PmP2 (pig)), 0.5 µg/mL; in series [4] (strain PmP17 (pig)), 0.5 µg/mL; in series [4] (strain T5) it was 0.5 µg/mL. Besides, the MIC in series [4] (strain WJ11), in series [4] (strain WN71), in series [4] (strain WW81) and in series [4] (strain XX12) was 0.5 µg/mL in each case. Further, the “plasma protein binding extent” value in series [5] is given as 13.83%. Besides, the “Gamithromycin dose required to reach 1-log10 kill” value in series [6] (Mean ± SD of D18, T5, WJ11, SD) worked out at 67.11 ± 6.01 mg/kg; in series [6] (setting [9]), 65.32 mg/kg; in series [6] (setting [10]), 73.80 mg/kg; in series [6] (setting [11]) it was 62.19 mg/kg. Besides, the “Gamithromycin dose required to reach stasis” value turned out to be 18.43 ± 3.10 mg/kg in series [6] (Mean ± SD of D18, T5, WJ11, SD); 17.99 mg/kg in series [6] (setting [9]); 21.73 mg/kg in series [6] (setting [10]); 15.58 mg/kg in series [6] (setting [11]). Also, the “Gamithromycin AUC/MIC required to reach 1-log10 kill” value worked out at 36.74 in series [6] (strain D18, n = 4); 41.51 in series [6] (strain T5, n = 4); 34.98 in series [6] (strain WJ11, n = 4). The “Gamithromycin AUC/MIC required to reach stasis” value in series [6] (strain D18, n = 4) is 10.33; in series [6] (strain T5, n = 4) it was 12.47; in series [6] (strain WJ11, n = 4) it was 8.11.
As to `CC[C@H](C)CCCCC(=O)N[C@@H](CCN)C(=O)N[C@H](C(=O)N[C@@H](CCN)C(=O)N[C@H]1CCNC(=O)[C@H]([C@@H](C)O)NC(=O)[C@H](CCN)NC(=O)[C@H](CCN)NC(=O)[C@H](CC(C)C)NC(=O)[C@@H](CC(C)C)NC(=O)[C@H](CCN)NC1=O)[C@@H](C)O` [Colistin] (X1-[Dab]T[Dab][Dab][Dab][dL]L[Dab][Dab]T; lactam 4-C), the “unbound extent in plasma” value in series [7] was 8.4%. Further, the time-kill outcome in series [8] is listed as “incapable of controlling bacterial growth”.
